In ChEMBL document CHEMBL1201862, “PubChem BioAssay data set” (2004):
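Dose response: 5 concentrations. Exposure: 48 h. Format: 96-well plates. Endpoint: linear interpolation; highest concentration if not reached. Here, GI50 denotes the concentration required for 50% inhibition of growth.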 The source made the active and inactive calls. No stated cut-off is given here; in the data, active = GI50 up to about 1.1 µM and inactive = higher.

What was measured:
Test in all cases: DTP human tumour cell line panel, 48 h
[1] = system: A498
[2] = system: A549
[3] = system: ACHN
[4] = system: CAKI-1
[5] = system: CCRF-CEM
[6] = system: COLO 205
[7] = system: DLD-1
[8] = system: DMS-114
[9] = system: DMS-273
[10] = system: EKVX
[11] = system: HCC 2998
[12] = system: HCT-116
[13] = system: HCT-15
[14] = system: HL-60
[15] = system: HOP-18
[16] = system: HOP-92
[17] = system: HT-29
[18] = system: IGROV-1
[19] = system: K562
[20] = system: KM12
[21] = system: LOX IMVI
[22] = system: LXFL 529
[23] = system: M14
[24] = system: MOLT-4
[25] = system: Malme-3M
[26] = system: NCI-H226
[27] = system: NCI-H23
[28] = system: NCI-H460
[29] = system: OVCAR-4
[30] = system: OVCAR-5
[31] = system: OVCAR-8
[32] = system: RPMI-8226
[33] = system: RXF 393
[34] = system: SF-268
[35] = system: SF-295
[36] = system: SF-539
[37] = system: SK-MEL-28
[38] = system: SK-MEL-2
[39] = system: SK-MEL-5
[40] = system: SN12C
[41] = system: SNB-19
[42] = system: SNB-75
[43] = system: SNB-78
[44] = system: SR
[45] = system: SW-620
[46] = system: TK-10
[47] = system: U-251
[48] = system: UACC-257
[49] = system: UO-31
[50] = system: XF498
[51] = system: 786-0
[52] = system: KM-20L2
[53] = system: NCI-H522
[54] = system: OVCAR-3
[55] = system: SK-OV-3
[56] = system: UACC-62
[57] = system: M19-MEL

CCCn1cc2c(O)nc(SC)nc2n1
GI50 [1]: 59.6 µM (inactive)
GI50 [2]: > 100 µM (inactive)
GI50 [3]: > 100 µM (inactive)
GI50 [4]: > 100 µM (inactive)
GI50 [5]: > 100 µM (inactive)
GI50 [6]: > 100 µM (inactive)
GI50 [7]: > 100 µM (inactive)
GI50 [8]: 91.6 µM (inactive)
GI50 [9]: > 100 µM (inactive)
GI50 [10]: > 100 µM (inactive)
GI50 [11]: > 100 µM (inactive)
GI50 [12]: > 100 µM (inactive)
GI50 [13]: > 100 µM
GI50 [14]: > 100 µM (inactive)
GI50 [15]: 28.8 µM (inactive)
GI50 [16]: > 100 µM (inactive)
GI50 [17]: > 100 µM (inactive)
GI50 [18]: > 100 µM (inactive)
GI50 [19]: > 10 µM (inactive)
GI50 [20]: > 100 µM (inactive)
GI50 [21]: > 100 µM (inactive)
GI50 [22]: > 100 µM (inactive)
GI50 [23]: > 100 µM (inactive)
GI50 [24]: > 100 µM (inactive)
GI50 [25]: > 100 µM (inactive)
GI50 [26]: 19.9 µM (inactive)
GI50 [27]: > 100 µM (inactive)
GI50 [28]: > 100 µM (inactive)
GI50 [29]: 91.4 µM (inactive)
GI50 [30]: 79.4 µM (inactive)
GI50 [31]: > 100 µM (inactive)
GI50 [32]: > 100 µM (inactive)
GI50 [33]: > 100 µM (inactive)
GI50 [34]: 59 µM (inactive)
GI50 [35]: > 100 µM (inactive)
GI50 [36]: > 100 µM (inactive)
GI50 [37]: > 100 µM (inactive)
GI50 [38]: > 100 µM (inactive)
GI50 [39]: > 100 µM (inactive)
GI50 [40]: > 100 µM (inactive)
GI50 [41]: > 100 µM (inactive)
GI50 [42]: 41.6 µM (inactive)
GI50 [43]: 32.3 µM (inactive)
GI50 [44]: 57.3 µM (inactive)
GI50 [45]: > 100 µM (inactive)
GI50 [46]: > 100 µM (inactive)
GI50 [47]: > 100 µM (inactive)
GI50 [48]: > 100 µM (inactive)
GI50 [49]: 72.6 µM (inactive)
GI50 [50]: 45.3 µM (inactive)

COc1cc(Br)c(CC2(C#N)c3ccccc3C3C(N2C(=O)c2ccccc2)C3(Cl)Cl)cc1OC (stereo unspecified)
GI50 [51]: > 65.5 µM (inactive)
GI50 [2]: > 65.5 µM (inactive)
GI50 [3]: > 65.5 µM (inactive)
GI50 [5]: > 65.5 µM (inactive)
GI50 [6]: 10.4 µM (inactive)
GI50 [7]: 19.3 µM (inactive)
GI50 [8]: 16.3 µM (inactive)
GI50 [9]: 2.69 µM (inactive)
GI50 [10]: > 65.5 µM (inactive)
GI50 [11]: 20.9 µM (inactive)
GI50 [12]: > 65.5 µM (inactive)
GI50 [13]: > 65.5 µM
GI50 [14]: 1.51 µM (inactive)
GI50 [15]: > 65.5 µM (inactive)
GI50 [16]: > 65.5 µM (inactive)
GI50 [17]: > 65.5 µM (inactive)
GI50 [18]: > 65.5 µM (inactive)
GI50 [19]: 5.7 µM (inactive)
GI50 [52]: > 65.5 µM (inactive)
GI50 [20]: 23.1 µM (inactive)
GI50 [21]: > 65.5 µM (inactive)
GI50 [22]: 4.01 µM (inactive)
GI50 [23]: 42.4 µM (inactive)
GI50 [24]: 2.03 µM (inactive)
GI50 [25]: > 65.5 µM (inactive)
GI50 [26]: > 65.5 µM (inactive)
GI50 [27]: > 65.5 µM (inactive)
GI50 [28]: 4.83 µM (inactive)
GI50 [53]: 3.52 µM (inactive)
GI50 [54]: 15.1 µM (inactive)
GI50 [30]: > 65.5 µM (inactive)
GI50 [31]: > 65.5 µM (inactive)
GI50 [32]: 0.935 µM (active)
GI50 [33]: > 65.5 µM (inactive)
GI50 [34]: > 65.5 µM (inactive)
GI50 [36]: 48 µM (inactive)
GI50 [37]: > 65.5 µM (inactive)
GI50 [38]: > 65.5 µM (inactive)
GI50 [39]: 2.94 µM (inactive)
GI50 [55]: > 65.5 µM (inactive)
GI50 [40]: > 65.5 µM (inactive)
GI50 [41]: > 65.5 µM (inactive)
GI50 [42]: > 65.5 µM (inactive)
GI50 [43]: > 65.5 µM (inactive)
GI50 [44]: 4.01 µM (inactive)
GI50 [45]: > 65.5 µM (inactive)
GI50 [46]: > 65.5 µM (inactive)
GI50 [47]: 39.4 µM (inactive)
GI50 [48]: 15.8 µM (inactive)
GI50 [56]: 33.5 µM (inactive)
GI50 [49]: 50.6 µM (inactive)
GI50 [50]: > 65.5 µM (inactive)

COc1c(C)cc2c(C(C)C)c(O)c(O)c(C=O)c2c1O
GI50 [51]: 26.4 µM (inactive)
GI50 [2]: 31.7 µM (inactive)
GI50 [3]: 29.6 µM (inactive)
GI50 [5]: 18.4 µM (inactive)
GI50 [6]: 16.4 µM (inactive)
GI50 [7]: 32.1 µM (inactive)
GI50 [8]: 17.8 µM (inactive)
GI50 [9]: 23 µM (inactive)
GI50 [10]: 27 µM (inactive)
GI50 [11]: 33.9 µM (inactive)
GI50 [12]: 20.7 µM (inactive)
GI50 [13]: 24.5 µM
GI50 [14]: 25.9 µM (inactive)
GI50 [15]: 14.9 µM (inactive)
GI50 [16]: 35.3 µM (inactive)
GI50 [17]: 13.3 µM (inactive)
GI50 [18]: 30.5 µM (inactive)
GI50 [19]: 17.2 µM (inactive)
GI50 [52]: 19.7 µM (inactive)
GI50 [20]: 18.3 µM (inactive)
GI50 [21]: 24 µM (inactive)
GI50 [22]: 24.8 µM (inactive)
GI50 [23]: 23.2 µM (inactive)
GI50 [57]: 26.5 µM (inactive)
GI50 [24]: 55.7 µM (inactive)
GI50 [25]: 16.2 µM (inactive)
GI50 [26]: 18.2 µM (inactive)
GI50 [27]: 18.3 µM (inactive)
GI50 [28]: 25.9 µM (inactive)
GI50 [53]: 25.6 µM (inactive)
GI50 [54]: 18.9 µM (inactive)
GI50 [29]: 17.2 µM (inactive)
GI50 [30]: 28.9 µM (inactive)
GI50 [31]: 27.4 µM (inactive)
GI50 [32]: 37.9 µM (inactive)
GI50 [33]: 21.6 µM (inactive)
GI50 [34]: 38.4 µM (inactive)
GI50 [35]: 28.8 µM (inactive)
GI50 [36]: 17.8 µM (inactive)
GI50 [37]: 22.4 µM (inactive)
GI50 [38]: 15.8 µM (inactive)
GI50 [39]: 16 µM (inactive)
GI50 [55]: 29.9 µM (inactive)
GI50 [40]: 27.7 µM (inactive)
GI50 [41]: 35.7 µM (inactive)
GI50 [42]: 25.4 µM (inactive)
GI50 [43]: 27.9 µM (inactive)
GI50 [45]: 40.6 µM (inactive)
GI50 [46]: 37 µM (inactive)
GI50 [47]: 18 µM (inactive)
GI50 [48]: 21.4 µM (inactive)
GI50 [56]: 20.6 µM (inactive)
GI50 [49]: 31.3 µM (inactive)
GI50 [50]: 39 µM (inactive)
